In patent US6566081B1, “Methods of identifying a compound which modulates the non-transcriptional non-map-kinase induced effects of steroid hormones” (The Brigham and Women's Hospital, Inc., priority 1999, dated 2003):
Entries after “also recorded” stand apart in the source; their conditions may differ.

Experiments:
[1] = test system: mouse cremaster muscle venules; experiment: Model of vascular injury: ischemia and reperfusion in the mouse cremaster muscle (leukocyte rolling and adhesion); assay type: in vivo; settings: wortmannin 100 nM or L-NAME 0.1 mM during ischemia
Method: (§1) Mice were anesthetized and the cremaster muscle was studied under intravital microscopy^28. Ischemia was induced by applying pressure to supplying arteries just sufficient to stop blood flow for 30 min. In some experiments, wortmannin (100 nM) or L-NAME (0.1 mM) was applied to the cremaster muscle during the ischemic period. The pressure was released for reperfusion, and the same vessels were recorded in each animal before and after I/R. The rolling velocities of 25 leukocytes were measured in each venule; sorted and averaged for each rank to construct cumulative histograms. The velocities of 3,750 leukocytes were measured in 150 venules before and after I/R. The number of firmly adherent leukocytes was measured before and after I/R in the same 200 μm long segments of venules.

eNOS [2] = biological target: T1, eNOS (Mus musculus, UniProt P70313); experiment: Cremaster eNOS activity in mice; assay type: in vivo; settings: L-NAME 0.1 mM, E2-treated mice
T1 construct: from tissue; host or cells: cremaster muscle of male C57BL/6 mice
Method: as §1, with “venules. The following number of venules were studies for leukocyte adhesion: Untreated, 15 venules; E2-treated, 20 venules; E2-treated with wortmannin, 25 venules; E2-treated with L-NAME, 15 venules. Cremaster eNOS activity was measured in 3 untreated, 4 E2-treated, 5 E2-treated with wortmannin, and 4 E2-treated with L-NAME mice.” for “venules.”

ERK 1 and 2 = experiment: Immunoblotting of ERK 1/2 phosphorylation; assay type: cell-based, human; settings: E2 10 nM, PD 98059 5 μM
Method: After the different treatments, serum-starved endothelial cells were rinsed once with ice-cold PBS before addition of the lysis buffer (100 mM Tris-HCl, pH 6.8, 4% SDS, 20% glycerol, 1 mM sodium orthovanadate, 1 mM NaF, and 1 mM phenylmethylsulfonylfluoride) to the dishes on an ice tray. The cell lysates were scraped, boiled, and centrifuged for 2 min at 13000 rpm. Total cell lysates (40 μg of protein) and low range molecular weight markers (BIO-RAD, Hercules, Calif.) were separated by SDS-polyacrylamide gel electrophoresis (12% running, 4% stacking), electrophoretically transferred to polyvinylidene fluoride membranes (Immobilon P, 0.45 μm pore size) and incubated overnight at 4° C. with blocking solution (5% skim milk in TBS—0.1% Tween 20). Affinity-purified rabbit antibodies (0.4 μg of IgG/ml) vs. Akt, (Ser 473) phospho-Akt or (Thr 308) phospho-Akt (New England BioLabs, Beverly, Mass.), Erk1/2, (Tyr 204) phospho-Erk-1/-2 (Calbiochem, San Diego, Calif.) were incubated with the membranes overnight at 4° C. in TBS—0.1% Tween 20 containing 5% BSA. The blots were washed three times with TBS—0.1% Tween 20 and then treated with donkey anti-rabbit antibody (1:4000 dilution) coupled to horseradish peroxidase. Immunodetection was accomplished using the enhanced chemoluminescence kit (ECL Kit, Amersham Corp.).

PI3-kinase = PI3-kinase assay on p85 immunoprecipitates of endothelial cell lysates; assay type: cell-based, human; settings: E2 10 nM 20 min; ICI 10 μM, wortmannin 30 nM
Method: PI3kinase activity in endothelial cell lysates was assayed using the borate thin layer chromatography method, as described.^34 Following a 6 h incubation in serum- and estrogen-deficient medium 199, endothelial cells were treated according to the indicated conditions, washed, and harvested in ice-cold lysis buffer (137 mM NaCl, 20 mM Tris-HCl, pH 7.4, 1 mM CaCl2, 1 mM Mg Cl2, 0.1 mM Na3VO4, 1% NP-40). After pelleting the cell debris, the supernatant was incubated for 1 hour at 4° C. with 5 μL of a rabbit antiserum directed against the p85 regulatory subunit of the PI3-kinase (Upstate Biotechnology, Lake Placid, N.Y.), and immunoprecipitated with the addition of 50 μL of a 1:1 slurry of protein A-agarose for 1 hour at 4° C. Following centrifugation, the immunoprecipitates were washed three times with lysis buffer, three times with 0.1 M Tris-HCl, pH 7.4, 5 mM LiCl, 0.1 mM Na3VO4, followed by two washes with 10 mM Tris-HCl, pH 7.4, 150 mM NaCl, 5 mM EDTA, 0.1 mM Na3VO4.
The immunoprecipitates were then mixed with 50 μL Tris-HCl, pH 7.4, 150 mM NaCl, 5 mM EDTA, 20 μg of phosphatidylinositol (Sigma, Saint Louis, Mo.), 10 μL 100 mM MgCl2 and 5 μL of a 0.88 mM ATP, 20 mM MgCl2 solution, containing 30 μCi of [γ-^32P]ATP (3000 Ci/mmol; NEN Life Science Products, Boston, Mass.). […] The phospholipids were extracted with 160 μL of chloroform/methanol (1:1, v/v). 50 μL of the organic phase, containing the labeled PI3-kinase products were separated by borate thin layer chromatography on glass-backed Silica Gel 60 plates (EM Separations, Gibbstown, N.J.) pretreated with a solution containing 25 mM trans-1,2-diaminocyclohexane-N,N,N′N′-tetraacetic acid (CDTA, Sigma, Saint Louis, Mo.), 66% (v/v) ethanol and 0.06 N NaOH, dried for 1 hour and then baked at 100° C. for 15 minutes. The chromatography was developed with a solution containing 37.5% (v/v) methanol, 30% (v/v) chloroform, 22.5% (v/v) pyridine (Sigma, Saint Louis, Mo.), 1.33% (v/v) formic acid, […] boric acid and 8.5 mM butylated hydroxytoluene (Sigma, Saint Louis, Mo.), briefly dried and exposed to autoradiography.

eNOS [3] = experiment: eNOS activity assay (conversion of [3H]-arginine to [3H]-citrulline) in treated human endothelial cells; assay type: cell-based; settings: E2 10 nM, wortmannin 30 nM, genistein 50 μM, PD98059 5 μM; for effect on E2-stimulated eNOS activity, later phase (≥15 min) or 30 min: ICI 10 μM, actinomycin D 2 h pretreatment
Method: Fetal bovine serum was deprived of estrogen by charcoal-stripping. Once grown to confluence the cells were replated on 1.5% gelatin-coated flasks at 20000 cells/cm^2. […] Cell number was assessed by direct cell counting of adherent cells, after trypsin detachment, in a Neubauer hemocytometer (VWR Scientifics). The percentage of cells excluding Trypan Blue after staining with the compound was taken as a measure of cell viability.
Endothelial cells were grown to confluence on 55 cm^2 culture dishes, treated according to the indicated conditions, and harvested in ice-cold PBS containing 1 mM EDTA. The cell lysates were pelleted in a microfuge (2 minutes, 13000 rpm, 4° C.) and subsequently homogenized in a buffer containing 25 mM Tris-HCl, pH 7.4, 1 mM EDTA, 1 mM EGTA. eNOS activity was determined by measuring the conversion of [^3H]-arginine to [^3H]-citrulline. Rat cerebellum extracts, containing elevated amounts of neuronal NOS, were used as positive controls, while endothelial cell extracts incubated in the presence of the competitive eNOS inhibitor L-NAME (1 mM) served as negative controls.
Human and bovine aortic endothelial cells were harvested enzymatically with Type IA collagenase (1 mg/mL).

ER-α / PI3-kinase p85α = biological target: T2, ER-α / PI3-kinase p85α (Homo sapiens, UniProt P03372); experiment: ER-α immunoprecipitation: co-precipitated p85α and associated PI3-kinase activity; assay type: cell-based; settings: ICI 10 μM, wortmannin, tamoxifen 1 μM, PD 98059 5 μM, actinomycin D 5 μM
T2 construct: endogenous in cells; host or cells: human endothelial cells (HSVEC), anti-ERα immunoprecipitate
T2 sequence (P03372 1-595): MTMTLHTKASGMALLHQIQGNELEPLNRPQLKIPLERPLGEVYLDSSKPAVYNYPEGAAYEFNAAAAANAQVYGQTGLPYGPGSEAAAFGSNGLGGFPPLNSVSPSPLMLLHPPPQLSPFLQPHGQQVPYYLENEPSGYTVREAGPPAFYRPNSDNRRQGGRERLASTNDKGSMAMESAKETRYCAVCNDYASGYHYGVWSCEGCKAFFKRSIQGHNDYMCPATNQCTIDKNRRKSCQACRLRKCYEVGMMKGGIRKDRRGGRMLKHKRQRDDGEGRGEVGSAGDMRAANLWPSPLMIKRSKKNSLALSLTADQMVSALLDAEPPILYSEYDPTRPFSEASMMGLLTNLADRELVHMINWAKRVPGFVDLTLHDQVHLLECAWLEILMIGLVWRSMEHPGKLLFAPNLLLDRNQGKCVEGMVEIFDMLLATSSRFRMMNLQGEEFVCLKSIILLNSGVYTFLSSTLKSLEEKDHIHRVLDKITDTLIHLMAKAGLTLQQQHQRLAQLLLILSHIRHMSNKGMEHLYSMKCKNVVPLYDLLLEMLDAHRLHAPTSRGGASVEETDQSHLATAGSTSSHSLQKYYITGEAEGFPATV

ERα-p85α interaction = biological target: T3, ERα-p85α interaction (Homo sapiens, UniProt P03372); experiment: GST fusion protein-affinity purification (GST-p85α and recombinant ERα, cell-free); assay type: binding; settings: recombinant ERα, Hsp90 0.5 μg
T3 construct: purchased Panvera (ERα)
Method: Human recombinant GST-p85α fusion protein or GST (Sigma, St. Louis, Mo.) bound to glutathione-agarose beads (1 μg protein/20 μL beads) were suspended in 400 μL of E. Coli protein extract solution (10 mg/mL) and incubated with 1 μg human recombinant ERα (Panvera, Madison, Wis.) for 1 h at 4° C. The samples were pelleted, and the beads were washed 5 times with a buffer containing 50 mM potassium phosphate, pH 7.5, 150 mM KCl, 1 mM MgCl2, 10% (v/v) glycerol, 1% (v/v) Triton X-100 plus protease inhibitors. The beads were re-suspended in 50 μL of 2×Laemmli's buffer and boiled for 5 min. Proteins were separated on SDS-polyacrylamide gel electrophoresis.

T3 sequence (P27986 whole entry partner, one chain of several, the tested form may be a part): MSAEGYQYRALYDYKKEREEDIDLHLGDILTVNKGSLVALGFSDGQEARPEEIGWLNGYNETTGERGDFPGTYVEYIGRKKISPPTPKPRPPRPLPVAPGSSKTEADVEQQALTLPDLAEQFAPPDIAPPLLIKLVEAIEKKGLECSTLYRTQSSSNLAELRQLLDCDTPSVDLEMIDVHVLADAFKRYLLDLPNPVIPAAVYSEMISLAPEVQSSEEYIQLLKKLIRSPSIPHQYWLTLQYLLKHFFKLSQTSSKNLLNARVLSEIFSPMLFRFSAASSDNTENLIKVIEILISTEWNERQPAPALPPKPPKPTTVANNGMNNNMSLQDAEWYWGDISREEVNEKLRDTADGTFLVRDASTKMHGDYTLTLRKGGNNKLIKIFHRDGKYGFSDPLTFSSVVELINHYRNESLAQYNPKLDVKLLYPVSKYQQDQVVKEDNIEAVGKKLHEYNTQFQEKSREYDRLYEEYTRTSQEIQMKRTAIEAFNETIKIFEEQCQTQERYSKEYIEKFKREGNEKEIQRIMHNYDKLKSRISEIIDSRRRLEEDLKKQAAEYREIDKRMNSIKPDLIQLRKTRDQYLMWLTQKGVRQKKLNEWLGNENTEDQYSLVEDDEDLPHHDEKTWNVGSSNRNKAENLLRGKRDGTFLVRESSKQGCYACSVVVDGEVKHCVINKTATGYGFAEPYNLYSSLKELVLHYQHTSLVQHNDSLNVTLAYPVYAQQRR
T1 sequence (P70313 2-1202): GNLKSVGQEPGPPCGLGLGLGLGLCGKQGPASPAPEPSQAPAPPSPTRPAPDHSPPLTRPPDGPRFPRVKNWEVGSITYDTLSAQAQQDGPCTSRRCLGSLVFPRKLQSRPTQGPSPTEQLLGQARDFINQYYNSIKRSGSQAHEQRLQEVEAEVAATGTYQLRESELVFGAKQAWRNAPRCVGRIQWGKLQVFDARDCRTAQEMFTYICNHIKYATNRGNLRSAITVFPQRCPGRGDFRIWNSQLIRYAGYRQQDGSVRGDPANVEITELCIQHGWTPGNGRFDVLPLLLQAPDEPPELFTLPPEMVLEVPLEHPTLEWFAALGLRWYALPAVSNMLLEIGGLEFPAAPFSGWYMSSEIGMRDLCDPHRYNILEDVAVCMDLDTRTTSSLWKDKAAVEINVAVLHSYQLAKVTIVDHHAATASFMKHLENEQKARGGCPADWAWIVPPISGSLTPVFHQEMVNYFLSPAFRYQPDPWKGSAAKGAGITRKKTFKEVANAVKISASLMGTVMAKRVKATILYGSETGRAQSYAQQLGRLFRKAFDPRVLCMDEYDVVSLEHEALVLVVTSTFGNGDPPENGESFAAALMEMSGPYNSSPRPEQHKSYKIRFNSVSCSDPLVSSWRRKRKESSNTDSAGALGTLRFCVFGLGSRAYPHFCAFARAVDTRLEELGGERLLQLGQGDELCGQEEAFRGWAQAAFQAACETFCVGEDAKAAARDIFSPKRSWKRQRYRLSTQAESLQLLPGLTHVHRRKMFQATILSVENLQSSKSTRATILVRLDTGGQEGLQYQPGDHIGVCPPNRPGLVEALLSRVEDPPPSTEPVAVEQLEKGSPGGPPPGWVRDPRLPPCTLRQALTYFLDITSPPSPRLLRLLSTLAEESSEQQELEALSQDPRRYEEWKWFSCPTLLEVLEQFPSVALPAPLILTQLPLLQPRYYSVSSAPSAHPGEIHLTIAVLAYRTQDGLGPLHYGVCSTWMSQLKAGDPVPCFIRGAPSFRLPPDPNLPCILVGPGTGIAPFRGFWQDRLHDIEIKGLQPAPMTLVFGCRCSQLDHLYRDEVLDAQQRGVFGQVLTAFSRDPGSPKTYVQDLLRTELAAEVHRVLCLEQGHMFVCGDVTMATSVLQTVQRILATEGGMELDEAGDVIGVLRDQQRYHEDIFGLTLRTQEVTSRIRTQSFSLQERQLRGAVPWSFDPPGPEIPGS

COC(=O)[C@@H](N)CCCNC(=N)N[N+](=O)[O-] [L-NAME, L-nitroarginine methylester]
leukocyte rolling velocity and accumulation, untreated vs E2-treated mice following I/R, with inhibitor applied to the cremaster muscle [1]: not different | effect of applied inhibitor on cremaster eNOS activity (eNOS [2]): decreased eNOS activity below that of untreated mice

COc1cccc(-c2cc(=O)c3ccccc3o2)c1N [PD98059]
effect on E2-stimulated ERK-1 and -2 phosphorylation (ERK 1 and 2): inhibited | effect on E2-stimulated ERK-1 and -2 phosphorylation (ERK 1 and 2; listed as PD 98059): abolished | effect on E2-induced PI3-kinase activation (PI3-kinase): only minimally affected | effect on E2-stimulated eNOS activity, later phase (≥15 min) or 30 min (eNOS [3]): only minimally affected; also recorded: not the later phase; also recorded: little or no inhibitory effect | effect on E2-stimulated eNOS activity, later phase (≥15 min) or 30 min (eNOS [3]; listed as PD 98059): do not block | effect on E2-stimulated eNOS activity, initial phase (first 5-10 min) (eNOS [3]): able to block; also recorded: significantly blocked | effect on E2-stimulated eNOS activity, initial phase (first 5-10 min) (eNOS [3]; listed as PD 98059): blunt | effect on E2-stimulated ER-α-associated PI3-kinase activity (ER-α / PI3-kinase p85α): not

Heat shock protein 90: heat shock protein that binds and facilitates the function of ER and eNOS
effect on interaction of ERα and p85α (ERα-p85α interaction): inhibited | effect on interaction of ERα and p85α (ERα-p85α interaction; listed as Hsp90): inhibits
